Assay results taken from US9034309B2, “Biocidal polymers” (Wisconsin Alumni Research Foundation, priority 2003, dated 2015).
In brackets after ≈: the same amount, converted by molar mass. Where a SMILES comes first, the peptide text is derived from it.

Experiments:
[1] = system: S. aureus 5332 (clinical MRSA isolate); experiment: microbe, parasite or virus in culture; type: cell-based, Staphylococcus aureus; conditions: for MIC S. aureus 5332: Table 3, unit not given (Table 1: μg/mL), median of at least three experiments
Procedure: (§1) Minimal Inhibitory Concentration (MIC): Stock solutions of polymers (5.00 μL at 2 mg/mL, prepared as described above), commercial synthetic (Ala^8,3,18)-1-magainin-2-amide (Sigma, dissolved in Millipore water to 1 mg/mL, 10.0 μL, as positive control), or solvent blank (5.00 μL) were diluted into brain-heart infusion (BHI) broth in row A of 96-well sterile assay plates (B-D Falcon 35-3075, Fisher Scientific) and seven serial twofold dilutions were performed to give 50 μL of peptide solution (at double the final assay concentration) in each well. Bacterial strains (Escherichia coli JM1O9, Bacillus subtilis BR151,^24 Staphylococcus aureus 5332 (a clinical MRSA isolate from the Weisblum laboratory strain collection), and Enterococcus faecium A436^25) were grown on 2% bacteriological agar in BHI medium. Cells from these cultures were suspended in BHI broth at a concentration of approximately 10^6 colony-forming units (CFU)/mL, and 50 μL of cell suspension was added to each well to give a total of 100 μL in each well.
(§2) Plates were then incubated at 37° C. for 6 h. Bacterial growth gives rise to turbidity and light scattering, which was detected by measuring 0D650 using a Molecular Devices Emax microplate reader connected to a Windows computer running SOFTmax v.2.34. OD650 values from two simultaneous experiments were averaged. […] If an even number of experiments was performed and the two median values were not identical, the geometric mean is reported as the MIC.

[2] = system: E. faecium A436 (vancomycin-resistant); experiment: microbe, parasite or virus in culture; type: cell-based, Enterococcus faecium; conditions: for MIC E. faecium A436: Table 3, unit not given (Table 1: μg/mL), median of at least three experiments
Procedure: as §1, §2

[3] = system: E. coli JM109; experiment: microbe, parasite or virus in culture; type: cell-based, Escherichia coli; conditions: for MIC E. coli JM109: Table 3, unit not given (Table 1: μg/mL), median of at least three experiments
Procedure: as §1, §2

[4] = system: B. subtilis BR151; experiment: microbe, parasite or virus in culture; type: cell-based, Bacillus subtilis; conditions: for MIC B. subtilis BR151: Table 3, unit not given (Table 1: μg/mL), median of at least three experiments
Procedure: as §1, §2

[5] = system: E. Coli, B. subtilis, methicillin-resistant S. aureus, vancomycin-resistant E. faecium; experiment: BHI growth inhibition assay, statements over all four strains; type: cell-based; conditions: BHI broth, up to 50 μg/mL
Procedure: as §1
Plates were then incubated at 37° C. for 6 h. Bacterial growth gives rise to turbidity and light scattering, which was detected by measuring 0D650 using a Molecular Devices Emax microplate reader connected to a Windows computer running SOFTmax v.2.34. OD650 values from two simultaneous experiments were averaged. […]

[6] = system: E. coli JM109; experiment: Minimal Bactericidal Concentration (MBC); type: cell-based, Escherichia coli; conditions: Table 2, unit not given; lowest well concentration showing no colonies (>99% killing); plates incubated 4 d
Procedure: Minimal Bactericidal Concentration (MBC): To determine cell viability, 10 μL from each of the MIC, 2×MIC, and 4×MIC wells (up to the maximum concentration of […]) was diluted 100-fold. Of this, 100 μL (containing at most 5×10^2 CFU) was plated on 2% bacteriological agar in BHI medium and incubated at 37° C. overnight (for B. subtilis) or for 4 d (for E. coli, because no growth was seen after 10 h; colonies appeared on some plates after extended incubation). The absence of colonies was considered indicative of >99% bacterial killing, and the lowest assay well concentration showing no colonies is reported as the MBC.

MIC ([1]; Staphylococcus aureus, MRSA, BHI broth, 37° C., 6 h, tested up to 50 μg/mL, conservative estimates, read-out: Minimum Inhibitory Concentrations (MIC's) S. aureus 5332) [µg/mL]	MIC S. aureus 5332 ([1]; BHI broth, 37° C., 6 h) [µg/mL]	MIC ([2]; Enterococcus faecium, BHI broth, 37° C., 6 h, tested up to 50 μg/mL, conservative estimates, read-out: Minimum Inhibitory Concentrations (MIC's) E. faecium A436) [µg/mL]	MIC E. faecium A436 ([2]; BHI broth, 37° C., 6 h) [µg/mL]	MIC ([3]; Escherichia coli, JM109, BHI broth, 37° C., 6 h, tested up to 50 μg/mL, conservative estimates, read-out: Minimum Inhibitory Concentrations (MIC's) E. coli JM109) [µg/mL]	MIC E. coli JM109 ([3]; BHI broth, 37° C., 6 h) [µg/mL]	MIC ([4]; Bacillus subtilis, BR151, BHI broth, 37° C., 6 h, tested up to 50 μg/mL, conservative estimates, read-out: Minimum Inhibitory Concentrations (MIC's) B. subtilis BR151) [µg/mL]	MIC B. subtilis BR151 ([4]; BHI broth, 37° C., 6 h) [µg/mL]	Minimum Inhibitory Concentrations (MIC's) S. aureus 5332 ([1]; 5332 (clinical isolate, 6 h)) [µg/mL]	Minimum Inhibitory Concentrations (MIC's) E. faecium A436 ([2]; A436 (vancomycin-resistant, 6 h)) [µg/mL]	Minimum Inhibitory Concentrations (MIC's) E. coli JM109 ([3]; JM109, 6 h) [µg/mL]	Minimum Inhibitory Concentrations (MIC's) B. subtilis BR151 ([4]; BR151, 6 h) [µg/mL]	Compound	growth inhibition / inhibitory activity (in words) [5]	MBC E. coli JM109 [6]
> 50	> 50	> 50	> 50	> 50	> 50	> 50	> 50					C=Cc1ccc(CN(C)C)cc1 [(1) (monomer), 4-(dimethylaminomethyl)-styrene]	no growth inhibition	
	12.5 (≈ 5.04 µM)		3.2 (≈ 1.29 µM)		12.5 (≈ 5.04 µM)		6.3 (≈ 2.54 µM)	12.5	3.2	12.5	6.3	CC[C@H](C)[C@H](NC(=O)CN)C(=O)NCC(=O)N[C@@H](CCCCN)C(=O)N[C@@H](Cc1ccccc1)C(=O)N[C@@H](CC(C)C)C(=O)N[C@@H](Cc1c[nH]cn1)C(=O)N[C@@H](C)C(=O)N[C@@H](C)C(=O)N[C@@H](CCCCN)C(=O)N[C@@H](CCCCN)C(=O)N[C@@H](Cc1ccccc1)C(=O)N[C@@H](C)C(=O)N[C@@H](CCCCN)C(=O)N[C@@H](C)C(=O)N[C@@H](Cc1ccccc1)C(=O)N[C@H](C(=O)N[C@@H](C)C(=O)N[C@@H](CCC(=O)O)C(=O)N[C@H](C(=O)N[C@@H](CCSC)C(=O)N[C@@H](CC(N)=O)C(=O)N[C@@H](CO)C(N)=O)[C@@H](C)CC)C(C)C [(Ala^8,3,18)-magainin-2-amide] (H-GIGKFLHAAKKFAKAFVAEIMNS-NH2; N-terminus assumed)		25
